According to ChEMBL document CHEMBL1201862, “PubChem BioAssay data set” (2004):
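96-well plates; 48 h exposure; 5 concentrations. Endpoints by linear interpolation between flanking doses. Not reached: highest tested concentration assigned. GI50 is the concentration that inhibits growth by half.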 Activity calls are given as the source filed them. Rule as the data show it: active = GI50 up to about 1.1 µM and inactive = higher.

Columns and labels:
Assay in all cases: inhibition of tumour cell growth, NCI panel, 48 h
[1] = test system: KM12
[2] = test system: MDA-MB-435
[3] = test system: OVCAR-3
[4] = test system: IGROV-1
[5] = test system: MCF7
[6] = test system: NCI-H226
[7] = test system: OVCAR-8
[8] = test system: UACC-257
[9] = test system: NCI/ADR-RES
[10] = test system: SN12C
[11] = test system: MOLT-4
[12] = test system: HOP-92
[13] = test system: HT-29
[14] = test system: SF-268
[15] = test system: DU-145
[16] = test system: MDA-N
[17] = test system: ACHN
[18] = test system: PC-3
[19] = test system: SK-OV-3
[20] = test system: RXF 393
[21] = test system: NCI-H460
[22] = test system: SNB-19
[23] = test system: HCT-15
[24] = test system: NCI-H522
[25] = test system: SK-MEL-5
[26] = test system: EKVX
[27] = test system: T47D
[28] = test system: A549
[29] = test system: SR
[30] = test system: A498
[31] = test system: HCC 2998
[32] = test system: UO-31
[33] = test system: BT-549
[34] = test system: K562
[35] = test system: MDA-MB-231
[36] = test system: LOX IMVI
[37] = test system: UACC-62
[38] = test system: OVCAR-5
[39] = test system: 786-0
[40] = test system: M14
[41] = test system: CAKI-1
[42] = test system: CCRF-CEM
[43] = test system: U-251
[44] = test system: HL-60
[45] = test system: HOP-62
[46] = test system: COLO 205
[47] = test system: SW-620
[48] = test system: TK-10
[49] = test system: Hs-578T
[50] = test system: RPMI-8226
[51] = test system: OVCAR-4
[52] = test system: SK-MEL-2
[53] = test system: NCI-H23
[54] = test system: HCT-116
[55] = test system: SF-295
[56] = test system: SF-539
[57] = test system: SNB-75

Measured: GI50

CC1=C(C(=O)NNC(=O)C[N+](C)(C)C)CC(C(=O)NNC(=O)C[N+](C)(C)C)=C(C)N1
> 100 µM: [23]
inactive: [1] > 100 µM | [2] > 100 µM | [3] > 100 µM | [4] > 100 µM | [5] > 100 µM | [6] > 100 µM | [7] > 100 µM | [8] > 100 µM | [9] > 100 µM | [10] > 100 µM | [11] > 100 µM | [12] 71.8 µM | [13] > 100 µM | [14] > 100 µM | [15] > 100 µM | [16] > 100 µM | [17] > 100 µM | [18] > 100 µM | [19] > 100 µM | [20] > 100 µM | [21] > 100 µM | [22] > 100 µM | [24] > 100 µM | [25] > 100 µM | [26] > 100 µM | [27] 63.2 µM | [28] > 100 µM | [29] 35.6 µM | [30] 61.7 µM | [31] > 100 µM | [32] 68.4 µM | [33] > 100 µM | [34] > 100 µM | [35] > 100 µM | [36] > 100 µM | [37] > 100 µM | [38] > 100 µM | [39] > 100 µM | [40] > 100 µM | [41] > 100 µM | [42] 21.8 µM | [43] > 100 µM | [44] 24.9 µM | [45] > 100 µM | [46] > 100 µM | [47] > 100 µM | [48] > 100 µM | [49] > 100 µM | [50] > 100 µM | [51] > 100 µM | [52] > 100 µM | [53] > 100 µM | [54] > 100 µM | [55] > 100 µM | [56] > 100 µM

Cn1c(-c2ccccc2)cc(-c2cccs2)c1-c1ccsc1
inactive: [1] 80.5 µM | [2] > 100 µM | [3] > 100 µM | [4] > 100 µM | [5] 47.4 µM | [6] > 100 µM | [7] > 100 µM | [8] > 100 µM | [9] > 100 µM | [10] > 100 µM | [11] > 100 µM | [12] > 100 µM | [13] > 100 µM | [14] > 100 µM | [57] > 100 µM | [15] > 100 µM | [16] > 100 µM | [17] > 100 µM | [18] > 100 µM | [19] > 100 µM | [20] > 100 µM | [21] > 100 µM | [22] > 100 µM | [25] > 100 µM | [26] > 100 µM | [27] > 100 µM | [28] > 100 µM | [29] > 100 µM | [30] > 100 µM | [31] > 100 µM | [32] > 100 µM | [33] > 100 µM | [34] > 100 µM | [35] > 100 µM | [36] > 100 µM | [37] > 100 µM | [38] > 100 µM | [39] > 100 µM | [40] > 100 µM | [41] > 100 µM | [42] > 100 µM | [43] > 100 µM | [44] > 100 µM | [45] > 100 µM | [46] > 100 µM | [47] > 100 µM | [48] > 100 µM | [49] > 100 µM | [50] 64.1 µM | [51] > 100 µM | [52] > 100 µM | [53] > 100 µM | [54] 61.5 µM | [55] > 100 µM | [56] > 100 µM
> 100 µM: [23]
